Measured values from publication PMC6151695, “Novel Selective Estrogen Receptor Ligand Conjugates Incorporating Endoxifen-Combretastatin and Cyclofenil-Combretastatin Hybrid Scaffolds: Synthesis and Biochemical Evaluation” (Molecules : A Journal of Synthetic Chemistry and Natural …, 2017).
Marks after values point to notes of the source that are not given here.

Key:
[1] = molecular target: T1, human ERβ (Homo sapiens, UniProt Q92731); assay: Estrogen receptor fluorescence polarisation competitive binding assay, ERβ; conditions: competitive binding, fluorescence polarisation; read-out: ERβ IC50
T1 construct: purchased Invitrogen
T1 sequence (Q92731 whole entry): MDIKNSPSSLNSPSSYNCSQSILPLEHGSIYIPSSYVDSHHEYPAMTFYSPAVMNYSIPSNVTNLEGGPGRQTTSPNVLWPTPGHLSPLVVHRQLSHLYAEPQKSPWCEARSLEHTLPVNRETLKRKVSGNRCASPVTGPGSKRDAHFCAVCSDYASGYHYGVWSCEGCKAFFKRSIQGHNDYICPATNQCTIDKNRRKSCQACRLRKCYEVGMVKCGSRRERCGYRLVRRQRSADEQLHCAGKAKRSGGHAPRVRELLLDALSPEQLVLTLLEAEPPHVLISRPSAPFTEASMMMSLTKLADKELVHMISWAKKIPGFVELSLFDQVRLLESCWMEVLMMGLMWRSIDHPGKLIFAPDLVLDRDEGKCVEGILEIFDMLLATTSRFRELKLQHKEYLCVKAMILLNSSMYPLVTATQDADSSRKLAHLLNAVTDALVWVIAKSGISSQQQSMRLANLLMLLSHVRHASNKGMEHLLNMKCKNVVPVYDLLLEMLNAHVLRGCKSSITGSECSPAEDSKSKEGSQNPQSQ

[2] = tested on: 60 cancer cell lines; assay: NCI 60 cell line screen, whole panel; type: cell-based, human
[3] = tested on: HL-60(TB); assay: NCI60 in vitro screen, Leukemia; type: cell-based, human
[4] = tested on: A549/ATCC; assay: NCI60 in vitro screen, Non-Small Cell Lung Cancer; type: cell-based, human
[5] = tested on: EKVX; assay: NCI60 in vitro screen, Non-Small Cell Lung Cancer; type: cell-based, human
[6] = tested on: HOP-62; assay: NCI60 in vitro screen, Non-Small Cell Lung Cancer; type: cell-based, human
[7] = tested on: NCI-H226; assay: NCI60 in vitro screen, Non-Small Cell Lung Cancer; type: cell-based, human
[8] = tested on: NCI-H332M; assay: NCI60 in vitro screen, Non-Small Cell Lung Cancer; type: cell-based, human
[9] = tested on: NCI-H552; assay: NCI60 in vitro screen, Non-Small Cell Lung Cancer; type: cell-based, human
[10] = tested on: HCT-2998; assay: NCI60 in vitro screen, Colon Cancer; type: cell-based, human
[11] = tested on: HCT-15; assay: NCI60 in vitro screen, Colon Cancer; type: cell-based, human
[12] = tested on: KM12; assay: NCI60 in vitro screen, Colon Cancer; type: cell-based, human
[13] = tested on: SF295; assay: NCI60 in vitro screen, CNS Cancer; type: cell-based, human
[14] = tested on: SF539; assay: NCI60 in vitro screen, CNS Cancer; type: cell-based, human
[15] = tested on: SNB-19; assay: NCI60 in vitro screen, CNS Cancer; type: cell-based, human
[16] = tested on: SNB-75; assay: NCI60 in vitro screen, CNS Cancer; type: cell-based, human
[17] = tested on: U251; assay: NCI60 in vitro screen, CNS Cancer; type: cell-based, human
[18] = tested on: DU-145; assay: NCI60 in vitro screen, Prostate cancer; type: cell-based, human
[19] = tested on: MALME-3M; assay: NCI60 in vitro screen, Melanoma; type: cell-based, human
[20] = tested on: MDA-MB-435; assay: NCI60 in vitro screen, Melanoma; type: cell-based, human
[21] = tested on: SK-MEL-28; assay: NCI60 in vitro screen, Melanoma; type: cell-based, human
[22] = tested on: SK-MEL-5; assay: NCI60 in vitro screen, Melanoma; type: cell-based, human
[23] = tested on: UACC-62; assay: NCI60 in vitro screen, Melanoma; type: cell-based, human
[24] = tested on: IGROV1; assay: NCI60 in vitro screen, Ovarian cancer; type: cell-based, human
[25] = tested on: OVCAR-4; assay: NCI60 in vitro screen, Ovarian cancer; type: cell-based, human
[26] = tested on: OVCAR-8; assay: NCI60 in vitro screen, Ovarian cancer; type: cell-based, human
[27] = tested on: NCI/ADR-RES; assay: NCI60 in vitro screen, Ovarian cancer; type: cell-based, human
[28] = tested on: A498; assay: NCI60 in vitro screen, Renal cancer; type: cell-based, human
[29] = tested on: ACHN; assay: NCI60 in vitro screen, Renal cancer; type: cell-based, human
[30] = tested on: CAKI-1; assay: NCI60 in vitro screen, Renal cancer; type: cell-based, human
[31] = tested on: RXF 393; assay: NCI60 in vitro screen, Renal cancer; type: cell-based, human
[32] = tested on: TK-10; assay: NCI60 in vitro screen, Renal cancer; type: cell-based, human
[33] = tested on: UO-31; assay: NCI60 in vitro screen, Renal cancer; type: cell-based, human
[34] = tested on: HS 578T; assay: NCI60 in vitro screen, Breast cancer; type: cell-based, human
[35] = tested on: BT-549; assay: NCI60 in vitro screen, Breast cancer; type: cell-based, human
[36] = tested on: MCF-7; assay: cells; conditions: Homo sapiens
[37] = physchem; conditions: buffer

CC/C(=C(\c1ccccc1)c1ccc(OCCN(C)C(=O)CCC(=O)Oc2cc(/C=C\c3cc(OC)c(OC)c(OC)c3)ccc2OC)cc1)c1ccccc1 (mixture of isomers) [Compound 16a, N-{2-[4-((Z)-1,2-Diphenylbut-1-enyl)phenoxy]ethyl}-N-methylsuccinamic acid 2-methoxy-5-[(Z)-2-(3,4,5-trimethoxyphenyl)vinyl]phenyl ester]
IC50 [1]: 22.7 nM | IC50 ([2]; Homo sapiens, 60 cell, read-out: GI50 (IC50) values for most of the 60 cancer cell lines): 10 to 72 nM | GI50 ([2]; Homo sapiens, 60 cell, NCI60 five-dose, read-out: MG-MID (μM), mean of GI50 values over all cell lines): 1.62 µM | inhibition at 10 µM ([2]; Homo sapiens, 60 cell, one-dose, 10 μM, read-out: growth inhibition in a further 10 cell lines): 80 to 89% | MG% (10^−5 M), Mean Growth % over all cell lines ([2]; NCI60 one-dose, 10 μM): 14.74% | Growth % (10^−5 M) ([3]; 10 μM): 28.19% | GI50 ([3]; Homo sapiens): 14.5 nM | Growth % (10^−5 M) ([4]; 10 μM): 18.56% | GI50 ([4]; Homo sapiens): 59 nM | Growth % (10^−5 M) ([5]; 10 μM): 22.72% | GI50 ([5]; Homo sapiens): 56.9 nM | Growth % (10^−5 M) ([6]; HOP-62, 10 μM): 35.29% | GI50 ([6]; Homo sapiens, HOP-62): 49.2 nM | GI50 ([7]; Homo sapiens, NCI-H226): 47.1 nM | Growth % (10^−5 M) ([7]; NCI-H226, 10 μM): 11.59% | Growth % (10^−5 M) ([8]; 10 μM): 57.18% | GI50 ([8]; Homo sapiens): 67.2 nM | GI50 ([9]; Homo sapiens, NCI-H552): 19.7 nM | Growth % (10^−5 M) ([9]; NCI-H552, 10 μM): −30.85 ^e % | Growth % (10^−5 M) ([10]; HCT-2998, 10 μM): 4.72% | inhibition at 10 µM ([10]; Homo sapiens, HCC-2998, one-dose, 10 μM, read-out: growth inhibition): 95% | GI50 ([10]; Homo sapiens, HCT-2998): 31.7 nM | Growth % (10^−5 M) ([11]; HCT-15, 10 μM): 0.71% | GI50 ([11]; Homo sapiens, HCT-15): 24.5 nM | inhibition at 10 µM ([11]; Homo sapiens, HCT-15, one-dose, 10 μM, read-out: growth inhibition): 99% | GI50 ([12]; Homo sapiens, KM12): < 10 nM | Growth % (10^−5 M) ([12]; KM12, 10 μM): −37 ^e % | GI50 ([13]; Homo sapiens, SF-295, SF295): 20.8 nM | inhibition at 10 µM ([13]; Homo sapiens, SF-295, one-dose, 10 μM, read-out: growth inhibition): 94% | Growth % (10^−5 M) ([13]; SF295, 10 μM): 6.21% | GI50 ([14]; Homo sapiens, SF-539, SF539): 21.3 nM | Growth % (10^−5 M) ([14]; SF539, 10 μM): −7.31 ^e % | GI50 ([15]; Homo sapiens, SNB-19): 36.5 nM | Growth % (10^−5 M) ([15]; SNB-19, 10 μM): 28.03% | GI50 ([16]; Homo sapiens, SNB-75): 16.6 nM | Growth % (10^−5 M) ([16]; SNB-75, 10 μM): 39.46% | GI50 ([17]; Homo sapiens, U-251, U251): 31.6 nM | inhibition at 10 µM ([17]; Homo sapiens, U-251, U251, one-dose, 10 μM, read-out: growth inhibition): 90% | Growth % (10^−5 M) ([17]; U251, 10 μM): 10.13% | Growth % (10^−5 M) ([18]; DU-145, 10 μM): −36.33 ^e % | GI50 ([18]; Homo sapiens, DU-145): 12.5 nM | GI50 ([19]; Homo sapiens, Malme-3M): > 10000 nM | Growth % (10^−5 M) ([19]; MALME-3M, 10 μM): 74.86% | GI50 ([20]; Homo sapiens, MDA-MB-435): < 10 nM | Growth % (10^−5 M) ([20]; MDA-MB-435, 10 μM): −16.61 ^e % | GI50 ([21]; Homo sapiens, SK-MEL-28): < 10 nM | Growth % (10^−5 M) ([21]; SK-MEL-28, 10 μM): 89.31% | GI50 ([22]; Homo sapiens, SK-MEL-5): 20.1 nM | Growth % (10^−5 M) ([22]; SK-MEL-5, 10 μM): −34.34 ^e % | GI50 ([23]; Homo sapiens, UACC-62): 18.1 nM | Growth % (10^−5 M) ([23]; UACC-62, 10 μM): 25.13% | GI50 ([24]; Homo sapiens, IGROV-1, IGROV1): 47.3 nM | Growth % (10^−5 M) ([24]; IGROV1, 10 μM): −26.34 ^e % | GI50 ([25]; Homo sapiens, OVCAR-4): 62.8 nM | Growth % (10^−5 M) ([25]; OVCAR-4, 10 μM): 30.96% | GI50 ([26]; Homo sapiens, OVCAR-8): 49 nM | Growth % (10^−5 M) ([26]; OVCAR-8, 10 μM): 12.79% | Growth % (10^−5 M) ([27]; 10 μM): −41.32 ^e % | GI50 ([27]; Homo sapiens): 11.1 nM | Growth % (10^−5 M) ([28]; A498, 10 μM): 29.47% | GI50 ([28]; Homo sapiens, A498): 58.1 nM | Growth % (10^−5 M) ([29]; 10 μM): 22.73% | GI50 ([29]; Homo sapiens): 45.5 nM | Growth % (10^−5 M) ([30]; CAKI-1, 10 μM): 23.4% | GI50 ([30]; Homo sapiens, CAKI-1): 30.7 nM | GI50 ([31]; Homo sapiens, RXF 393): 39.8 nM | Growth % (10^−5 M) ([31]; RXF 393, 10 μM): 12.08% | GI50 ([32]; Homo sapiens, TK-10): 589 nM | Growth % (10^−5 M) ([32]; TK-10, 10 μM): 33.77% | GI50 ([33]; Homo sapiens, UO-31): 88.4 nM | Growth % (10^−5 M) ([33]; UO-31, 10 μM): 31.52% | Growth % (10^−5 M) ([34]; 10 μM): 17.57% | GI50 ([34]; Homo sapiens): 25.5 nM | Growth % (10^−5 M) ([35]; BT-549, 10 μM): 7.07% | GI50 ([35]; Homo sapiens, BT-549): 43.8 nM | inhibition at 10 µM ([35]; Homo sapiens, BT-549, one-dose, 10 μM, read-out: growth inhibition): 94% | GI50 ([36]; MCF7): 34.5 nM | IC50 ([36]; MCF7, read-out: GI50 (IC50)): 36 nM | inhibition at 10 µM ([36]; MCF7, read-out: growth inhibition): 90% | half-life at 14.6 µg/mL [37]: > 20 h
